Experimental data: patent US20260234163A1, “NOVEL COMPOUNDS AND USES THEREOF” (ACELINK THERAPEUTICS, INC., priority 2023, published 2026)

Molecular target: T1, Keap1-Nrf2 (Homo sapiens, UniProt Q14145)
T1 construct: purchased Sino Biological 11981-H20B
Assay: Keap1-Nrf2 Binding Inhibitory Activity Assay (fluorescence polarization, Keap1_FL + FITC-Nrf2 peptide)
Details: Keap1-FL, 60 min room temperature
Protocol: Example 2.1 Keap1-Nrf2 Binding Inhibitory Activity Assay
• PerkinElmer EnVision 2105 Multilabel Reader • PerkinElmer FITC FP dual emission Label 2100-8060 • LABCYTE Echo 650 • Corning 384-well microplate #4514 • Keap1_FL, Sino Biological, catalog 11981-H20B • FITC-Nrf2 peptide, GL Biochem, Lot No: p210427-XQ892761
• a) Reference titration • 1. Keap1-Nrf2 Assay Buffer was prepared: 10 mM Tris-HCl pH 7.4, 150 mM NaCl, 50 mM EDTA, 0.05% Tween20, 0.1 mg/ml BSA (freshly add before use). • 2. 2.04× Tracer working solution was prepared: 2.04 nM FITC-Nrf2 peptide in Assay Buffer from 1 μM DMSO stock. • 3. 2× Protein working solution was prepared: 25 nM Keap1-FL in Assay Buffer. • 4. 100× compound working solutions with DMSO were prepared. Starting from 100 μM, serial 3-fold dilutions (10 points) were made by the Echo on the 384-well LDV microplate, then 200 nL of compounds, in duplicated wells, were transferred to a Corning 4514 plate. • 5. 9.8 μL per well of the Tracer working solution was added into the Corning 4514 plate. • 6. 10 μL per well of the Protein working solution was added into the Corning 4514 plate, except for the first two columns where Dilution Buffer were added to serve as “positive control”. • 7. The plate was incubated at room temperature for 60 min. • b) Read data on an EnVision with the following setting: Excitation Light (%): 84; Measurement Height: 9.4; G-Factor: 1; Detector Gain 1:220; Detector Gain 2: 220; Flash Number: 50.
All the Test Compounds were considered as having Keap1-Nrf2 binding inhibitory activity.

Compound | IC50
Cc1ccc2cc1CN(C)C(=O)c1ccc(cc1)COCCCn1nnc3c(C)c(ccc31)C2CC(=O)O (single isomer, unassigned) [Compound 16, 2-(1^4,3^4,5-trimethyl-6-oxo-1^1H-9-oxa-5-aza-1(5,1)-benzo[d][1,2,3]triazola-3(1,3), 7(1,4)-dibenzenacyclododecaphane-2-yl)acetic acid] | 1000 to 10000 nM
Cc1c2ccc3c1nnn3CCOCCOC1CCN(CC1)C(=O)c1ccc3ccc(cc3c1)C2CC(=O)O (single isomer, unassigned) [Compound 18] | 1000 to 10000 nM
Cc1c2ccc3c1nnn3CCOCCOC1CCN(CC1)C(=O)c1ccc3ccc(cc3c1)C2CC(=O)O (single isomer, unassigned) [Compound 19] | 1000 to 10000 nM
Cc1c2ccc3c1nnn3CCCOCc1ccc(cc1)C(=O)N(C)Cc1cncc(c1)C2CC(=O)O (single isomer, unassigned) [Compound 20] | 1000 to 10000 nM
Cc1c2ccc3c1nnn3CCCOCc1ccc(cc1)C(=O)N(C)Cc1cncc(c1)C2CC(=O)O (single isomer, unassigned) [Compound 23] | 1000 to 10000 nM
Cc1c2ccc3c1nnn3CCCOCc1ccc(cc1)C(=O)N(C)Cc1cccc(n1)C2CC(=O)O (single isomer, unassigned) [Compound 24] | 100 to 1000 nM
Cc1c2ccc3c1nnn3CCCCCC1CCN(CC1)C(=O)N1CCc3ccc(cc3C1)C2CC(=O)O (single isomer, unassigned) [Compound 28] | ≤ 100 nM
Cc1c2ccc3c1nnn3CCCCCC1CCN(CC1)C(=O)N1CCc3ccc(cc3C1)C2CC(=O)O (single isomer, unassigned) [Compound 29] | ≤ 100 nM
Cc1c2ccc3c1nnn3CCCCCC1CCC(CC1)C(=O)N1CCc3ccc(cc3C1)C2CC(=O)O (single isomer, unassigned) [Compound 49] | ≤ 100 nM
O=C(O)CC1c2ccc3c(c2)CN(CC3)C(=O)N2CCC(CCCCn3nnc4cc1cnc43)CC2 (single isomer, unassigned) [Compound 51] | 100 to 1000 nM
Cc1c2ccc3c1nnn3CCCCOC1CCN(CC1)S(=O)(=O)N1CCc3ccc(cc3C1)C2CC(=O)O (centres unmarked) [Compound 6, 2-(1^4-methyl-4,4-dioxido-3^1,3^2,3^3,3^4-tetrahydro-1^1H-6-oxa-4-thia-3(7,2)-isoquinolina-1(5,1)-benzo[d][1,2,3]triazola-5(1,4)-piperidinacyclodecaphane-2-yl)acetic acid] | ≤ 100 nM
Cc1c2ccc3c1nnn3CCOCCOC1CCN(CC1)C(=O)c1ccc3c(c1)CN(CC3)C2CC(=O)O (centres unmarked) [Compound 9, 2-(carboxymethyl)-1^4-methyl-4-oxo-3^1,3^2,3^3,3^4-tetrahydro-1^1H-6,9-dioxa-3(2,7)-isoquinolin-2-iuma-1(5,1)-benzo[d][1,2,3]triazola-5(1,4)-piperidinacycloundecaphan-3^2-ium chloride] | 1000 to 10000 nM
Cc1c2ccc3c1nnn3CCCCOc1ccc(cc1)S(=O)(=O)N1CCc3ccc(cc3C1)C2CC(=O)O (centres unmarked) [Compound 13, 2-(1^4-methyl-4,4-dioxido-3^1,3^2,3^3,3^4-tetrahydro-1^1H-6-oxa-4-thia-3(7,2)-isoquinolina-1(5,1)-benzo[d][1,2,3]triazola-5(1,4)-benzenacyclodecaphane-2-yl)acetic acid] | ≤ 100 nM
Cc1c2ccc3c1nnn3CCOCCOC1CCN(CC1)S(=O)(=O)N1CCc3ccc(cc3C1)C2CC(=O)O (centres unmarked) [Compound 15, 2-(1^4-methyl-4,4-dioxido-3^1,3^2,3^3,3^4-tetrahydro-1^1H-6,9-dioxa-4-thia-3(7,2)-isoquinolina-1(5,1)-benzo[d][1,2,3]triazola-5(1,4)-piperidinacycloundecaphane-2-yl)acetic acid] | ≤ 100 nM
Cc1c2ccc3c1nnn3CCCCC1CCN(CC1)C(=O)N(C)Cc1cccc(c1)C2CC(=O)O (centres unmarked) [Compound 32] | 1000 to 10000 nM
Cc1c2ccc3c1nnn3CCCCC1CCC(CC1)C(=O)N(C)Cc1cccc(c1)C2CC(=O)O (centres unmarked) [Compound 36] | 100 to 1000 nM
Cc1c2ccc3c1nnn3CCCCCCCCNC(=O)N1CCc3ccc(cc3C1)C2CC(=O)O (centres unmarked) [Compound 38] | ≤ 100 nM
Cc1c2ccc3c1nnn3CCCCCCC(=O)N1CCc3ccc(cc3C1)C2CC(=O)O (centres unmarked) [Compound 42] | ≤ 100 nM
Cc1c2ccc3c1nnn3CCCCCNC(=O)N1CCc3ccc(cc3C1)C2CC(=O)O (centres unmarked) [Compound 43] | 1000 to 10000 nM
Cc1c2ccc3c1nnn3CCCCCC1CCN(CC1)C(=O)N(C)CCc1ccc(cc1)C2CC(=O)O (centres unmarked) [Compound 44, 2-(14,6-dimethyl-7-oxo-11H-6-aza-1(5,1)-benzo[d][1,2,3]triazola-8(1,4)-piperidina-3(1,4)-benzenacyclotridecaphane-2-yl)acetic acid] | 1000 to 10000 nM
Cc1c2ccc3c1nnn3CCCCC(=O)N1CCc3ccc(cc3C1)C2CC(=O)O (centres unmarked) [Compound 46] | 100 to 1000 nM

Second part, the compound after the results:

IC50 | Compound
1000 to 10000 nM | Cc1c2ccc3c1nnn3CCCOCc1ccc(cc1)C(=O)N(C)Cc1cccc(n1)C2CC(=O)O (single isomer, unassigned) [Compound 25]
100 to 1000 nM | Cc1c2ccc3c1nnn3CCCOCc1ccc(cc1)C(=O)N(C)Cc1cc(ccn1)C2CC(=O)O (single isomer, unassigned) [Compound 26]
1000 to 10000 nM | Cc1c2ccc3c1nnn3CCCOCc1ccc(cc1)C(=O)N(C)Cc1cc(ccn1)C2CC(=O)O (single isomer, unassigned) [Compound 27]
≤ 100 nM | Cc1c2ccc3c1nnn3CCCCC1CCC(CC1)C(=O)N1CCc3ccc(cc3C1)C2CC(=O)O (single isomer, unassigned) [Compound 47]
≤ 100 nM | Cc1c2ccc3c1nnn3CCCCC1CCC(CC1)C(=O)N1CCc3ccc(cc3C1)C2CC(=O)O (single isomer, unassigned) [Compound 48]
≤ 100 nM | Cc1c2ccc3c1nnn3CCCCCC1CCC(CC1)C(=O)N1CCc3ccc(cc3C1)C2CC(=O)O (single isomer, unassigned) [Compound 50]
≤ 100 nM | O=C(O)CC1c2ccc3c(c2)CN(CC3)C(=O)N2CCC(CCCCn3nnc4cc1cnc43)CC2 (single isomer, unassigned) [Compound 52]
100 to 1000 nM | Cc1c2ccc3c1nnn3CCCOCc1ccc(cc1)C(=O)N(C)Cc1ccnc(c1)C2CC(=O)O (centres unmarked) [Compound 21]
1000 to 10000 nM | Cc1c2ccc3c1nnn3CCCOCc1ccc(cc1)S(=O)(=O)N(C)Cc1cccc(c1)C2CC(=O)O (centres unmarked) [Compound 22]
100 to 1000 nM | Cc1c2ccc3c1nnn3CCCCCC1CCN(CC1)C(=O)N(C)Cc1cccc(c1)C2CC(=O)O (centres unmarked) [Compound 31]
≤ 100 nM | Cc1c2ccc3c1nnn3CCCCCCCCCC(=O)N1CCc3ccc(cc3C1)C2CC(=O)O (centres unmarked) [Compound 41]
